According to patent US8466160B2, “Identification of non-small cell lung carcinoma (NSCLC) tumors expressing PDGFR-alpha” (priority 2005, dated 2013):
Counter-ions that a name gives are not always drawn.

Key:
PDGFRα phosphorylation [1] = test: Western blot of PDGFRα phosphorylation in H1703 cells; type: cell-based, human; conditions: dose response, FIG. 9(b)
[2] = system: PDGFRα-expressing human NSCLC tumors (H1703) xenografts; test: Tumor size in mouse xenografts of PDGFRα-expressing human NSCLC tumors; type: in vivo, mice
Description: This hypothesis was tested using mouse xenografts derived from the H1703 cell line.
(§1) In this model, human cell lines are injected into immune-compromised mice forming xenograft tumors that resemble human tumors including vascularization and other features found in human tumors. The mice are then administered the drug in the same manner as in human patients. Tumor size may be monitored visually during drug treatment and the tumors may be removed, fixed and analyzed by standard IHC procedures or lysed and analyzed by Western blot.

H1703 cell line = test: MTT cell proliferation assay, H1703; type: cell-based, human; conditions: concentrations similar to K562 (0.1 μM)
H1373 cell line = test: MTT cell proliferation assay, H1373; type: cell-based, human
A549 cell line [3] = test: MTT cell proliferation assay, A549; type: cell-based, human
PDGFRα phosphorylation [4] = test: Western blot / IHC of PDGFRα phosphorylation in xenograft tumors; type: in vivo, mice
Description: as §1

A549 cell line [5] = conditions: Mol. Cancer 2003, not reproduced by the inventors; cited from earlier work
K562 cell line = test: MTT cell proliferation assay, K562; type: cell-based
AKT phosphorylation [6] = test: IHC of AKT phosphorylation in xenograft tumors; type: in vivo, mice; conditions: treated vs control tumors, FIG. 11
Description: as §1

AKT phosphorylation [7] = test: Western blot of AKT phosphorylation in H1703 cells; type: cell-based, human
Description: (§2) Phosphorylation of the EGFR receptor, ERK and AKT were determined while total PDGFRα and ERK1/2 are included as loading controls. […] AKT is thought to be the primary driver of cell survival (see Franke, Cell 88: 435-437 (1997)).

ERK phosphorylation = test: Western blot of ERK phosphorylation in H1703 cells; type: cell-based, human; conditions: FIG. 9(a)
Description: as §2

Row | SMILES | lowest dose that inhibits PDGFRα phosphorylation (PDGFRα phosphorylation [1]) [µM] | average tumor diameter in treated mice ([2]; 3 treated mice, control approximately 190 mm) | effect on tumor size ([2]; xenograft, FIG. 10(a)) | sensitivity of cell growth to Gleevec (MTT) (H1703 cell line) | sensitivity of cell growth to Gleevec (MTT) (H1373 cell line) | concentration up to which cell growth was not affected (MTT) (A549 cell line [3]) [µM] | effect on PDGFRα phosphorylation in xenograft tumors (IHC) (PDGFRα phosphorylation [4]; treated vs control tumors, FIG. 11) | effect on PDGFRα phosphorylation in xenografts (Western blot) (PDGFRα phosphorylation [4]; tumor lysate, 4 treated mice vs one control) | growth of A549 cell line as reported by Zhang et al. (A549 cell line [5]) | concentration at which cell line is sensitive (MTT) (K562 cell line) [µM] | effect on AKT phosphorylation in xenograft tumors (IHC) (AKT phosphorylation [6]) | effect on AKT phosphorylation (AKT phosphorylation [7]; Western blot, FIG. 9(a)) | dose that greatly inhibits AKT phosphorylation (AKT phosphorylation [7]; dose response, FIG. 9(b)) [µM] | effect on ERK phosphorylation (ERK phosphorylation)
1 | Cc1ccc(NC(=O)c2ccc(CN3CCN(C)CC3)cc2)cc1Nc1nccc(-c2cccnc2)n1 [Gleevec®, Imatinib mesylate] | 0.01 | approximately 20 mm | significant decrease in tumor size | sensitive | insensitive | > 10 | decrease | inhibiting PDGFRα phosphorylation | growth inhibition | 0.1 | decrease | loss of AKT phosphorylation | 0.1 | 
2 | COc1cc2ncnc(Nc3ccc(F)c(Cl)c3)c2cc1OCCCN1CCOCC1 [Iressa™] |  |  |  |  |  |  |  |  |  |  |  |  |  | decreases
